The target in one test is T1, Solute carrier family 12 member 5 (Homo sapiens, UniProt Q9H2X9).
T1 sequence (Q9H2X9 whole entry): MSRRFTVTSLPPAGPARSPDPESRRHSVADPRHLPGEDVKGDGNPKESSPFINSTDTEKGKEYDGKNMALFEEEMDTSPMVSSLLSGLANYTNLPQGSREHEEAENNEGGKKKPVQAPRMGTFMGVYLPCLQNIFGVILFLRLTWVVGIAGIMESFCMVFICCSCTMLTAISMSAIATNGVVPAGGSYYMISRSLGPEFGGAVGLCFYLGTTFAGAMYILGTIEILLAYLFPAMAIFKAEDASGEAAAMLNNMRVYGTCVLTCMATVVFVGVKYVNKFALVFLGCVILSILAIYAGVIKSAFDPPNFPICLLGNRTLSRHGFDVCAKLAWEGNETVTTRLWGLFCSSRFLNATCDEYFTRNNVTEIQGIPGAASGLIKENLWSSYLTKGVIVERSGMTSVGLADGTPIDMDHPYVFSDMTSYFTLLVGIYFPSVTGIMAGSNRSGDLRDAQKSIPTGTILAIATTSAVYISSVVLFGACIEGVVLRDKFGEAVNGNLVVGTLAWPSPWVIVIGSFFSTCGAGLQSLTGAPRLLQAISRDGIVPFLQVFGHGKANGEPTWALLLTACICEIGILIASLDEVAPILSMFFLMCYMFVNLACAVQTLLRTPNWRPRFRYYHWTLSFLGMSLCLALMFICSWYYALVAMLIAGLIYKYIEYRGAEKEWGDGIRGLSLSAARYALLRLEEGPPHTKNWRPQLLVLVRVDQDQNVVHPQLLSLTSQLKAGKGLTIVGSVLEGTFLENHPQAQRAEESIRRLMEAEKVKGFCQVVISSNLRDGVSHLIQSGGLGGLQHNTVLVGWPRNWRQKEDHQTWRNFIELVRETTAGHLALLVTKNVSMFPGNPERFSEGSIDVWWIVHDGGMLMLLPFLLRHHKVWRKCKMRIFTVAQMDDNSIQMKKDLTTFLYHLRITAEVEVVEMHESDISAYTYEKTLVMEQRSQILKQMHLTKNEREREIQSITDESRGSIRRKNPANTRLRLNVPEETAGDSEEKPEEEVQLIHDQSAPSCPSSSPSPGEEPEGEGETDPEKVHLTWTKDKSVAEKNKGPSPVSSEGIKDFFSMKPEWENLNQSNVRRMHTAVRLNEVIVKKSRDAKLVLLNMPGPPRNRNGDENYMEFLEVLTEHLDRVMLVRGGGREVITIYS
Briefly: concentration-response of KCC2 transport modulators – cell-based, HEK293 KCC2, FluoZin-2 fluorescence, dose response (AID 1736).
Settings: not given
A word on the EC50: it is the concentration at which the effect is half-maximal. A higher EC50 goes with a need for much substance. `O=S(=O)(Nc1nc2ccccc2nc1N1CCN(c2ccccn2)CC1)c1ccc(Cl)cc1` [4-chloranyl-N-[3-(4-pyridin-2-ylpiperazin-1-yl)quinoxalin-2-yl]benzenesulfonamide] yielded a half-maximal effective concentration (EC50) of 6.8 µM. On the same count and under the same terms, the same measure for `O=C(CSc1ncccc1-c1nc2ccccc2[nH]1)N1CCN(c2ccccc2F)CC1` [MLS000033700]: 34.5 µM; for `CC1Cc2ccccc2N1C(=O)/C=C/c1cccc(F)c1` (centres undefined) [(E)-3-(3-fluorophenyl)-1-(2-methyl-2,3-dihydroindol-1-yl)-2-propen-1-one]: 129 µM; for `N#Cc1nc(Cc2cccc3ccccc23)oc1NCCN1CCOCC1` [5-(2-Morpholin-4-yl-ethylamino)-2-naphthalen-1-ylmethyl-oxazole-4-carbonitrile]: 5.4 µM.

In the case of `O=C(O)/C=C/c1cn(Cc2ccccc2)nc1-c1ccccc1` [MLS000567315], the midpoint of the response, the EC50, lay at 3.77 µM. On the same count and under the same terms, the result for `O=C(CN(c1ccc2c(c1)OCCO2)S(=O)(=O)c1ccccc1)N1CCN(Cc2ccccc2)CC1` [MLS000693333] reads 11.7 µM. The molecule `Cc1ccc(NC(=O)c2ccccc2NS(=O)(=O)c2ccc(Cl)s2)cc1` [2-[(5-chloranylthiophen-2-yl)sulfonylamino]-N-(4-methylphenyl)benzamide] returned a concentration giving a half-maximal response (EC50) of 1.17 µM.

`O=C(NC(=S)NNC(=O)c1cnccn1)c1ccc(Cl)cc1` [4-Chloro-N-[N'-(pyrazine-2-carbonyl)-hydrazinocarbothioyl]-benzamide] showed an EC50 of 23.3 µM. Take `O=c1[nH]c2ccc(S(=O)(=O)N3CCN(c4ccccc4F)CC3)cc2s1` [6-{[4-(2-fluorophenyl)piperazin-1-yl]sulfonyl}-1,3-benzothiazol-2(3H)-one]: the half-maximal effective concentration (EC50) turned out to be 5.64 µM. For the molecule `COCCNS(=O)(=O)c1ccc(-c2ccc(Cl)cc2)cc1` [4'-chloro-N-(2-methoxyethyl)-4-biphenylsulfonamide], the midpoint of the response, the EC50, lay at 6 µM. The same measure, in the same setting: the result for `O=c1[nH]c2c(s1)C(c1ccccc1)c1c(c(O)n(-c3ccccc3)c1O)S2` (centres undefined) reads 0.0665 µM. The same measure, in the same setting: the same measure for `Cc1ccc(NC(=O)CSc2ccc(-c3ccco3)nn2)cc1` [2-[6-(furan-2-yl)pyridazin-3-yl]sulfanyl-N-(4-methylphenyl)acetamide]: 3.48 µM; for `Cc1cccc(NC2=NN=C(c3ccccc3F)CS2)c1C`: 27.9 µM. On to `O=C(NNc1nc(-c2ccccc2)cs1)c1cccs1` [MLS000858987], for which the half-maximal effective concentration (EC50) amounted to 0.174 µM. The molecule `CN(Cc1ccccc1)c1nc2nonc2nc1N1CCCC(CN2CCCC2=O)C1` (centres undefined) [1-[(1-{6-[benzyl(methyl)amino][1,2,5]oxadiazolo[3,4-b]pyrazin-5-yl}piperidin-3-yl)methyl]pyrrolidin-2-one] came in with an EC50 of 2.43 µM. Same read-out and setting: the result for `CCc1ccc(OCCNC(=O)c2ccccc2SCc2ccccc2)cc1` [2-(benzylthio)-N-[2-(4-ethylphenoxy)ethyl]benzamide] reads 7.39 µM.

`Cn1c(C(=O)NCCCN2CCN(c3ccccc3F)CC2)cc2c(=O)n(C)c3ccccc3c21` [MLS000118127] came in with a concentration giving a half-maximal response (EC50) of 10.3 µM.

On to `O=C(COC(=O)c1cc([N+](=O)[O-])ccc1NCc1ccccc1)NC1CCCCC1` [2-(benzylamino)-5-nitro-benzoic acid [2-(cyclohexylamino)-2-keto-ethyl] ester], for which the response was half-maximal at 0.651 µM (EC50). `Cc1ccc(-c2noc(CN3CCN(Cc4ccccc4)CC3)n2)cc1` [1-benzyl-4-{[3-(4-methylphenyl)-1,2,4-oxadiazol-5-yl]methyl}piperazine] registered a concentration giving a half-maximal response (EC50) of 6.64 µM. For the molecule `Cc1nn(C)c(C)c1C=C1SC(S)=NC1=O` [MLS000324943], a half-maximal effect (EC50) was put at 51.2 µM. Same read-out and setting: the same measure for `Cc1ccccc1-c1nc(CS(=O)(=O)CC(=O)NCc2ccccc2)c(C)o1` [2-[[5-methyl-2-(2-methylphenyl)-1,3-oxazol-4-yl]methylsulfonyl]-N-(phenylmethyl)ethanamide]: 11.8 µM. For `N#Cc1nc(-c2cccs2)oc1N1CCN(Cc2ccccc2)CC1` [5-(4-benzyl-1-piperazinyl)-2-(2-thienyl)-1,3-oxazole-4-carbonitrile], the concentration giving a half-maximal response (EC50) is 3.58 µM.

`COc1cc(C=NNC(=O)CN(Cc2ccccc2)S(=O)(=O)c2ccc3c(c2)OCCO3)ccc1O` [2,3-Dihydro-benzo[1,4]dioxine-6-sulfonic acid benzyl-(4-hydroxy-3-methoxy-benzylidene-hydrazinocarbonylmethyl)-amide] registered a concentration for a half-maximal effect (EC50) of 2.79 µM. The molecule `CCn1c(CCNC(=O)c2cccs2)nnc1SCC(=O)Nc1nc(-c2ccccc2)cs1` [MLS000548611] showed a half-maximal effective concentration (EC50) of 4.57 µM. The same measure, in the same setting: the result for `CCCn1c(N)c(C(=O)CSc2nnc(Cc3ccccc3)o2)c(=O)n(C)c1=O` [6-amino-3-methyl-5-[1-oxo-2-[[5-(phenylmethyl)-1,3,4-oxadiazol-2-yl]thio]ethyl]-1-propylpyrimidine-2,4-dione] reads 0.017 µM. On the same count and under the same terms, the same measure for `Cc1ccccc1-c1nc(C[S+]([O-])CC(=O)NCc2ccccc2)c(C)o1` (centres undefined) [2-[[5-methyl-2-(2-methylphenyl)-1,3-oxazol-4-yl]methylsulfinyl]-N-(phenylmethyl)ethanamide]: 7.15 µM; for `O=C(NCCc1csc(-c2ccccc2)n1)c1cccs1` [MLS000102716]: 174 µM; for `Sc1nnc(Nc2ccccc2)s1` [5-anilino-3H-1,3,4-thiadiazole-2-thione]: 2.84 µM. The same measure, in the same setting: the result for `Cc1[nH]c2ccccc2c1SCC(=O)N1CCN(c2ccccc2)CC1` [2-[(2-methyl-1H-indol-3-yl)thio]-1-(4-phenyl-1-piperazinyl)ethanone] reads 4.24 µM. `Cc1ccc(/C=C2\SC(=S)N(c3c(C)n(C)n(-c4ccccc4)c3=O)C2=O)cc1` [3-(1,5-dimethyl-3-oxo-2-phenyl-2,3-dihydro-1H-pyrazol-4-yl)-5-(4-methylbenzylidene)-2-thioxo-1,3-thiazolidin-4-one] displayed an EC50 of 0.13 µM. Still for that read-out and setting: the result for `O=C(O)CC/C(=C\c1ccc(N2CCOCC2)c([N+](=O)[O-])c1)c1nc2ccccc2s1` [(E)-4-(1,3-benzothiazol-2-yl)-5-(4-morpholin-4-yl-3-nitro-phenyl)pent-4-enoic acid] reads 2.66 µM.

As to `O=C(O)CCc1cc(I)c(Oc2ccc(O)c(I)c2)c(I)c1` [3-[4-(4-hydroxy-3-iodophenoxy)-3,5-diiodophenyl]propanoic acid], the concentration for a half-maximal effect (EC50) was 5.39 µM. Same read-out and setting: the same measure for `O=[N+]([O-])c1ccc(CSc2nnc(SCc3ccccc3)s2)cc1` [2-(benzylthio)-5-[(4-nitrobenzyl)thio]-1,3,4-thiadiazole]: 2.24 µM; for `O=C(C1CC1)N1CCc2cc(S(=O)(=O)NC3CCN(Cc4ccccc4)CC3)ccc21` [1-[cyclopropyl(oxo)methyl]-N-[1-(phenylmethyl)-4-piperidinyl]-2,3-dihydroindole-5-sulfonamide]: 6.33 µM.

For `S=C(NN=Cc1cccc2ccccc12)Nc1cccc(Cl)c1` [1-(3-chlorophenyl)-3-(1-naphthalenylmethylideneamino)thiourea], it took 11 µM to reach a half-maximal effect (EC50). The same measure, in the same setting: the result for `CC(=O)NCCC(=O)N1CCCC(CNC(=O)c2ccc(-c3ccccc3)cc2)C1` (centres undefined) [MLS000733794] reads 5 µM. On the same count and under the same terms, the same measure for `Cc1csc(NC(=O)CSc2ccc(-c3ccccc3)nn2)n1` [N-(4-methyl-1,3-thiazol-2-yl)-2-(6-phenylpyridazin-3-yl)sulfanyl-ethanamide]: 0.249 µM; for `COc1ccc(-n2cnnc2SCC(=O)Nc2cc(S(=O)(=O)N3CCCCC3)ccc2C)cc1` [2-[[4-(4-methoxyphenyl)-1,2,4-triazol-3-yl]sulfanyl]-N-(2-methyl-5-piperidin-1-ylsulfonyl-phenyl)ethanamide]: 15.1 µM.

Turning to `CN(CC(=O)N1CCN(Cc2ccccc2)CC1)S(=O)(=O)c1cccc2nsnc12` [MLS000674627], the 50% effective concentration (EC50) came to 0.58 µM. Same read-out and setting: the result for `O=C(Cn1nc(-c2ccccc2)ccc1=O)NCc1ccc2c(c1)OCO2` [2-(6-keto-3-phenyl-pyridazin-1-yl)-N-piperonyl-acetamide] reads 3.26 µM; that for `O=C1OC(c2ccc(O)cc2)(c2ccc(O)cc2)c2ccccc21`, 2.31 µM.

With `CNc1ccc(/C=C(\CCC(=O)O)c2nc3ccccc3s2)cc1[N+](=O)[O-]` [MLS000394200], a half-maximal effect (EC50) was put at 24.6 µM. The same measure, in the same setting: the result for `O=C(NCCc1cn2ccccc2n1)c1cc(COc2c(F)cccc2F)on1` [5-[(2,6-difluorophenoxy)methyl]-N-(2-imidazo[1,2-a]pyridin-2-ylethyl)-1,2-oxazole-3-carboxamide] reads 78.9 µM.

The test is the same for the next values; noted with them: inactive by the depositor's call.
Molecule `O=C(NC(=S)Nc1ccc(-c2nc3ncccc3o2)cc1)c1ccccc1F` [2-fluoranyl-N-[[4-([1,3]oxazolo[4,5-b]pyridin-2-yl)phenyl]carbamothioyl]benzamide] returned a 50% effective concentration (EC50) of 1.8 µM.

The values above are taken from BindingDB's records for doi:10.7270/Q2TX3CSC (Vanderbilt Screening Center for GPCRs, Ion Channels and …, 2009).
